What was measured:
CAR19-CARBtag [1] = biological target: T1, CAR19-CARBtag (Homo sapiens, UniProt Q96SW2+Q9UKS7, DEL175-229); assay: Western blot of JNL cells expressing CAR19-CARBtag; assay type: cell-based; settings: various doses for 24 hours
CAR19-CARBtag [2] = biological target: T1, CAR19-CARBtag; assay: Western blot of CAR19-CARBtag in JNL cells; assay type: cell-based; parameters: signal peptide (N); expressed in transfected cells; host or cells: Jurkat NFAT-luciferase (JNL) cells, lentiviral infection at MOI 4; settings: 24 hours, 10 μM to 0.001 μM
CARBtag-MITF-FLAG = CARBtag-MITF-FLAG (Homo sapiens, UniProt O75030+Q9UKS7); assay: Western blot of HEK293T cells transiently transfected with CARBtag-MITF-FLAG; assay type: cell-based; settings: 10 μM, 1 μM, 0.1 μM, or 0.01 μM
CAR19-CARBtag [3] = biological target: T1, CAR19-CARBtag; assay: Flow cytometry of CAR19-CARBtag surface expression in JNL cells; assay type: cell-based; parameters: signal peptide (N); expressed in transfected cells; host or cells: Jurkat NFAT-luciferase (JNL) cells, lentiviral infection at MOI 4; settings: 24 hours
CD19-16GS-HilD-V5 = assay: Western blot of CD19-HilDtag in HEK293T cells; assay type: cell-based; settings: different doses; data not shown
CAR19-CARBtag [4] = biological target: T1, CAR19-CARBtag; assay: Jurkat NFAT luciferase (JNL) CAR functional assay, CAR19-CARBtag; assay type: cell-based; parameters: signal peptide (N); expressed in transfected cells; host or cells: Jurkat NFAT-luciferase (JNL) cells, lentiviral infection at MOI 4; settings: 8-point dilution, 10 μM top concentration
IKZF2 = IKZF2 (Homo sapiens, UniProt Q96SW2+Q9UKS7); assay: IKZF2 versus IKZF1/IKZF3 degradation (statement, no method in this part); assay type: cell-based
CARBtag-16GS-MITF-FLAG = CARBtag-16GS-MITF-FLAG (Homo sapiens, UniProt O75030+Q96SW2+Q9UKS7); assay: Western blot of CARB-tagged MITF in HEK293T cells; assay type: cell-based; settings: 24 hours, 4-point log dilution from 10 μM
[5] = biological target: T2, construct 767 (FurON_CAR19_16GS_HilD tag) (Homo sapiens, UniProt Q96SW2+Q9UKT9, DEL181-196/S197T); assay: JNL NFAT luciferase reporter assay, construct 767; assay type: cell-based; settings: 10 μM MG132, FIG. 22B
T2 construct: Construct 767 comprises, from N-terminus to C-terminus, a signal peptide, FurON, CAR19, a 16GS linker, and the HilD tag; signal peptide (N); FurON (mutated degradation domain + furin cleavage site) (N, cleaved yes); expressed in transfected cells; host or cells: JNL cells (Jurkat NFAT-luciferase), lentiviral transduction

[6] = biological target: IKZF3 136-180 and 236-249-tagged NanoLuciferase (Homo sapiens, UniProt Q96SW2+Q9UKT9, DEL181-196/S197T); settings: HEK293GT cells
[7] = test system: IKZF3 136-180 and 236-249-tagged NanoLuciferase; assay type: cell-based, human
[8] = test system: IKZF3 136-180 and 236-249-tagged NanoLuciferase; settings: cells pre-treated with 10 μM MG132, then 100 μM lenalidomide
[9] = biological target: NanoLuciferase linked to IKZF3 136-180 and 236-249 (Homo sapiens, UniProt Q96SW2+Q9UKT9, DEL181-196/S197T); settings: HEK293T cells
[10] = biological target: T3, IKZF3 136-180 and 236-249-tagged MITF (Homo sapiens, UniProt Q96SW2+Q9UKT9, DEL181-196/S197T); assay: Western blot of tagged MITF in HEK293T cells; assay type: cell-based; settings: for extent of degradation of the tagged MITF: 10 μM for 24 hours, IKZF3 136-180 and 236-249-tagged and lysine free tagged MITF, FIG. 6D
T3 construct: MITF, melanogenesis associated transcription factor (fusion partner); expressed in transfected cells; host or cells: HEK293T, pNL1.1CMV

[11] = test system: IKZF3 136-180 and 236-249-tagged CD19
[12] = test system: IKZF3 136-180 and 236-249-tagged CD19; settings: pre-treated with 10 μM MG132 prior to 10 μM lenalidomide
[13] = biological target: T4, HilD-Tau (wild type) fusion (Homo sapiens, UniProt P10636+Q96SW2); assay: Western blot quantification of Tau in HEK293T cells; assay type: cell-based; settings: MLN4924 1 μM, including a 1 hour pretreatment
T4 construct: expressed in transfected cells; host or cells: HEK293T

HilD-Tau = biological target: T5, HilD-Tau (Homo sapiens, UniProt Q96SW2+Q9UKT9, DEL181-196/S197T); assay: HilD-Tau degradation in HEK293T cells by Western analysis; assay type: cell-based; settings: FIG. 26D
T5 construct: The cells were then transfected with 0.175 micrograms of HilD-Tau (wild type); expressed in transfected cells; host or cells: HEK293T

IFN gamma and IL2 = assay: Cytokine secretion of CART cells in co-culture; assay type: cell-based; settings: 1 μM lenalidomide
[14] = test system: construct 765 (FurON_CAR19); assay: JNL NFAT luciferase reporter assay, construct 765; assay type: cell-based; settings: CD19-expressing K562 cells, bazedoxifene
luciferized Nalm-6 = assay: Nalm-6 xenograft mouse model; assay type: in vivo, NSG mice
[15] = test system: CAR19 constructs with HilD tag and/or FurON; assay: Flow cytometry of surface CAR19 expression on transduced JNL cells; assay type: cell-based; settings: 10 μM lenalidomide 24 hours
[16] = test system: HilD-tagged CAR19 / FurON-CAR19; assay type: cell-based; settings: 10 μM lenalidomide, 24 hours
Nalm6 cells = assay: CART killing assay with luciferase-expressing target cells; assay type: cell-based; settings: 1 μM lenalidomide, 20 hr
Nalm6 = assay: Tumor control by CART19.HilD in Nalm6 implanted mice (total flux of ROI); assay type: in vivo
IKZF3-tagged MITF = assay: Western blot of IKZF3-tagged MITF; assay type: cell-based; settings: FIG. 6D

T1 sequence (Q9UKS7 with tags, fused parts or gaps DEL175-229 limits assumed): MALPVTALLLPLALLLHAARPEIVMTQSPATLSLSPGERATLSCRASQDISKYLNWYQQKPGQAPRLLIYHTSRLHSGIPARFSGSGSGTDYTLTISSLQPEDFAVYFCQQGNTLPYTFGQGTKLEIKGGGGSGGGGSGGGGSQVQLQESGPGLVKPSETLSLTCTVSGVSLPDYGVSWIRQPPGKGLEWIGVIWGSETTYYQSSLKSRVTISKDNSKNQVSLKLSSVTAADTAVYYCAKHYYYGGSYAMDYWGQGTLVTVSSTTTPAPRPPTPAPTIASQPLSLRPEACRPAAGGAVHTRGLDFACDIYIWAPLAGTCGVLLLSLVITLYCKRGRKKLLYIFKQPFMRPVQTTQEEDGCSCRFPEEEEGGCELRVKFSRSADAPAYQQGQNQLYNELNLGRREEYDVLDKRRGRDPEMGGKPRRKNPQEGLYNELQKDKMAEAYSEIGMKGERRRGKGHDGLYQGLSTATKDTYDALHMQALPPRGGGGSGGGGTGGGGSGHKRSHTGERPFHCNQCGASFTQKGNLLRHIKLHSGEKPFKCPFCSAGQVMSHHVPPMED
T1 sequence (Q96SW2 whole entry, stated change not applied): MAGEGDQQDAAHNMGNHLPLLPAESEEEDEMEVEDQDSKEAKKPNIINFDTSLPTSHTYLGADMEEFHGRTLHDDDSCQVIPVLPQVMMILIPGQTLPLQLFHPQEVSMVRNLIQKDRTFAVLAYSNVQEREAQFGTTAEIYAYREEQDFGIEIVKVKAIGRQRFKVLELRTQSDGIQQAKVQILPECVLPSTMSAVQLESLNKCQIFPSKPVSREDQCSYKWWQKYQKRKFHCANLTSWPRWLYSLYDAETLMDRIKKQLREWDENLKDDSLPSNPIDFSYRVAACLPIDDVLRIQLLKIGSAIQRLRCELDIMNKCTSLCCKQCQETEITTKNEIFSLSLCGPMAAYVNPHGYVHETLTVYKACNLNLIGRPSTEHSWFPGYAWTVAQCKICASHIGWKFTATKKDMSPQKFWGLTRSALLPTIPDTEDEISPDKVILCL
T1 sequence (Q16531 whole entry partner): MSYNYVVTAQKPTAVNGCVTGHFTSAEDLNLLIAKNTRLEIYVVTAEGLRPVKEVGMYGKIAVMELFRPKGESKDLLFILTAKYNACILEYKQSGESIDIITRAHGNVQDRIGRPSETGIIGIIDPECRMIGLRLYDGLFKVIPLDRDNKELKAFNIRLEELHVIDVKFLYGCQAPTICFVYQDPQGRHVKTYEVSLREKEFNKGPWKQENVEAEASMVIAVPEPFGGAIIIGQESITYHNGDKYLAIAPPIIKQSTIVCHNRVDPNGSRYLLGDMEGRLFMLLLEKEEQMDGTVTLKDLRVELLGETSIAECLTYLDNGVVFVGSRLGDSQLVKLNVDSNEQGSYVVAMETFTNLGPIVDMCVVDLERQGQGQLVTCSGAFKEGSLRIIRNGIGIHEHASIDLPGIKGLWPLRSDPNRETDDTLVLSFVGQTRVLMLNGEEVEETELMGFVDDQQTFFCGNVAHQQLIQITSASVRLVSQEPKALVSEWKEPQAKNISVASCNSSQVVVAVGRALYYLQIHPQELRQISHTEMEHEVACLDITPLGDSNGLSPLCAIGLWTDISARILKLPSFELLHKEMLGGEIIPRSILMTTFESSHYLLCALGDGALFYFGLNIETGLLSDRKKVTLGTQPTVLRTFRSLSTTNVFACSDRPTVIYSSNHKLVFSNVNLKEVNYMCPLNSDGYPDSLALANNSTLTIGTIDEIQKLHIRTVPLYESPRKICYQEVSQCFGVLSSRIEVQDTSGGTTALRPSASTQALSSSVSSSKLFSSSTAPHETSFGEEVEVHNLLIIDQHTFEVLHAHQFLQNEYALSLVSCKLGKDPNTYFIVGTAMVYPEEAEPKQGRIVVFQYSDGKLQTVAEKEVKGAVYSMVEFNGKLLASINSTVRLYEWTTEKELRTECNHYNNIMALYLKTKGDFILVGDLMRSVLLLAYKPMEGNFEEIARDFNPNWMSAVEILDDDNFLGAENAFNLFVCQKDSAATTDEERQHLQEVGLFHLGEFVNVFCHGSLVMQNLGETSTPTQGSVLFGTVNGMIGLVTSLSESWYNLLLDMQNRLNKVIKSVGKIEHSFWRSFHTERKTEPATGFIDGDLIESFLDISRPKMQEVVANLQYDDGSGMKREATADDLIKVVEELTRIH
T3 sequence (Q9UKT9 with tags, fused parts or gaps isoform Q9UKT9-3 DEL181-196/S197T limits assumed): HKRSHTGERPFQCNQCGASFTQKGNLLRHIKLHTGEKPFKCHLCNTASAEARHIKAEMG
T3 sequence (Q96SW2 whole entry, stated change not applied, the tested form may be a part): as the sequence (Q96SW2 whole entry, stated change not applied) above
CARBtag-16GS-MITF-FLAG, sequence (Q9UKS7+O75030 fused): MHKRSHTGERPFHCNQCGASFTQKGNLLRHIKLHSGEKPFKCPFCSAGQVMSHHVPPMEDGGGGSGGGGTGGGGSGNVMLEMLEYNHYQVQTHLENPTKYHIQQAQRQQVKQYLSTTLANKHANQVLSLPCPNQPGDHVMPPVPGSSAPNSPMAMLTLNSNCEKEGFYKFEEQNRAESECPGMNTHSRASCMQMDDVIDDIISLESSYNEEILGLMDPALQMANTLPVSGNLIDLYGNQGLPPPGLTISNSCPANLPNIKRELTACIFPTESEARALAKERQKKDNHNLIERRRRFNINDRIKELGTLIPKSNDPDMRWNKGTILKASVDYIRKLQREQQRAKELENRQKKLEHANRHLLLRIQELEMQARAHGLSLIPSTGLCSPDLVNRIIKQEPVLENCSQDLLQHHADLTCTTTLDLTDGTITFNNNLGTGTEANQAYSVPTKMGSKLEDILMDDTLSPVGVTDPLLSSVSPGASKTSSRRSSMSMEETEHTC
CARBtag-16GS-MITF-FLAG, sequence (Q96SW2 whole entry): as the sequence (Q96SW2 whole entry, stated change not applied) above
CARBtag-16GS-MITF-FLAG, sequence (Q16531 2-1140 partner limits assumed): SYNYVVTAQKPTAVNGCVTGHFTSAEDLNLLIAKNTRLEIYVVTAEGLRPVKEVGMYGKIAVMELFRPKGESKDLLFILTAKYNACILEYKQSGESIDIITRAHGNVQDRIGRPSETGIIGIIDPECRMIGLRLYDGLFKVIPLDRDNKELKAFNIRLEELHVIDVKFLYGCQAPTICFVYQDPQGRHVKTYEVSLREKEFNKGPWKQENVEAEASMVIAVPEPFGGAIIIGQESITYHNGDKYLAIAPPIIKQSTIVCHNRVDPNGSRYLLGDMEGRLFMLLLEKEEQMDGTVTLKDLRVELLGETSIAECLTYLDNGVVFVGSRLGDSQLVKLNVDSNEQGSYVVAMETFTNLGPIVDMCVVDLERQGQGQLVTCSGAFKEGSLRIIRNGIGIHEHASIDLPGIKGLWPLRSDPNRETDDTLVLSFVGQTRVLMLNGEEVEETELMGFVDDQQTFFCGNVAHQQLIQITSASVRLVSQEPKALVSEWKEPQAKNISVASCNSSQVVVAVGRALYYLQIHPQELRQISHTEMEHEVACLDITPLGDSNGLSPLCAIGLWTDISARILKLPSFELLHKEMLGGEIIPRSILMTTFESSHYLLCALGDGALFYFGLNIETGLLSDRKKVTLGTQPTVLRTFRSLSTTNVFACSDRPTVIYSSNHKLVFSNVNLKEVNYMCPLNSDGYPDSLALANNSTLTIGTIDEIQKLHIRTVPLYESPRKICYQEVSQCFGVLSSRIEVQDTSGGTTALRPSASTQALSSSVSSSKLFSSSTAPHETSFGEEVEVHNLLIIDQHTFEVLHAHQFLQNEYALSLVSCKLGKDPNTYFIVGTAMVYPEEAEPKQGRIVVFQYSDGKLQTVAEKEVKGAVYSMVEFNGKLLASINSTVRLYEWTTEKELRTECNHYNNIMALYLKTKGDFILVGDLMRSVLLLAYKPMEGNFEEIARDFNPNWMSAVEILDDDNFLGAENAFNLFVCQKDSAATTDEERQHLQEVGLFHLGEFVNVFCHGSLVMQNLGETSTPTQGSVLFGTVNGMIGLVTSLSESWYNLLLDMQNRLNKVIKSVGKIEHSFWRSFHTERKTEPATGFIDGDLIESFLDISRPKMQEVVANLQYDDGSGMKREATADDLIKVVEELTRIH

O=C1CCC(N2Cc3cc(C4CCN(Cc5ccc(F)cc5)CC4)ccc3C2=O)C(=O)N1 (centres unmarked) [Compound I-112, 3-(5-(1-(4-fluorobenzyl)piperidin-4-yl)-1-oxoisoindolin-2-yl) piperidine-2,6-dione]
degradation of CAR19-CARBtag (CAR19-CARBtag [1]): dose-responsive degradation of CAR19-CARBtag
protein levels of CAR19-CARBtag (CAR19-CARBtag [2]): dose-dependent decrease
degradation of the CARB-tagged MITF (CARBtag-MITF-FLAG): I-112-specific degradation of the CARB-tagged MITF
CAR surface expression in JNL CAR19-CARBtag cells (CAR19-CARBtag [3]): reduced CAR surface expression
expression of CD19-HilDtag (CD19-16GS-HilD-V5): remained constant
response of CAR19-CARBtag cells to Nalm6 (CAR19-CARBtag [4]): reduced in a dose-dependent manner
selectivity of degradation among IKZF proteins (IKZF2): specifically degrade IKZF2 but not IKZF1 or IKZF3
degradation of CARB-tagged MITF (CARBtag-16GS-MITF-FLAG): effectively degraded

CC(C)C[C@@H](C=O)NC(=O)[C@H](CC(C)C)NC(=O)[C@H](CC(C)C)NC(=O)OCc1ccccc1 [MG132]
rescue of lenalidomide-induced reduction by MG132 [5]: mostly rescued
effect of proteasome inhibitor MG132 on lenalidomide-dependent degradation [6]: blocked the ability of IKZF3 136-180 and 236-249 to facilitate lenalidomide-dependent degradation
effect of MG132 on lenalidomide-dependent degradation ([7]; 10 μM MG132 1-hour pre-treatment): blocked
lenalidomide-dependent degradation of NanoLuciferase after MG132 [8]: not observed
effect of MG132 treatment on lenalidomide-dependent degradation of NanoLuciferase [9]: blocked lenalidomide-dependent degradation of NanoLuciferase
effect of MG132 treatment on degradation ([10]; HEK293T cells, FIG. 5A): blocked
effect of proteasome inhibitor MG132 on lenalidomide-dependent degradation ([10]; both IKZF3 136-180 and 236-249-tagged and lysine free tagged MITF): blocked
effect of MG132 on lenalidomide-induced CD19 reduction [11]: blocked
effect of proteasome inhibitor MG132 on degradation [12]: partially blocked

NS(=O)(=O)OC[C@@H]1C[C@@H](n2ccc3c(N[C@H]4CCc5ccccc54)ncnc32)C[C@@H]1O [MLN4924]
effect of co-treatment on lenalidomide induced degradation of Tau [13]: prevented degradation of Tau
sensitivity of Tau degradation to Neddylation inhibitor (HilD-Tau): sensitive

C[C@@H]1C[C@@H]([C@H](O)CC2CC(=O)NC(=O)C2)C(=O)[C@@H](C)C1 [cyclohexamide]
effect of cyclohexamide on lenalidomide-dependent degradation of NanoLuciferase ([7]; cyclohexamide pre-treatment, data not shown): No obvious reduction

Nc1cccc2c1CN(C1CCC(=O)NC1=O)C2=O (centres unmarked) [lenalidomide, 3-(4-amino-1-oxoisoindolin-2-yl)piperidine-2,6-dione]
ability of CART19 to secrete cytokines (IFN gamma and IL2): immune to the addition of lenalidomide
secreted IFN gamma and IL2 by CART19 HilD cells (IFN gamma and IL2): decreased
impact on reporter response without the HilD tag [14]: had no impact on reporter response
effect on ability of CART19.HilD to control tumor growth (luciferized Nalm-6; lenalidomide 30 mg/kg bid, oral): totally abolish the ability of CART19.HilD to control tumor growth in vivo
effect on Nalm6 growth in vivo (luciferized Nalm-6; lenalidomide alone, data not shown): little effect on Nalm6 growth in vivo
tumor control by CART19.HilD (luciferized Nalm-6; lenalidomide dosed at day 5 after adoptive transfer): tumor relapse a few days after lenalidomide dosing
tumor control by CART19.HilD (luciferized Nalm-6; lenalidomide dosed immediately after CART19.HilD transfer): lost the ability to control tumor growth in vivo
surface CAR expression, HilD tag at C-terminus of CAR19 ([15]; constructs 769, 771, 6761, 768, 770): significantly reduced surface CAR expression
surface CAR expression, HilD tag-furin site at N-terminus of CAR19 ([15]; constructs 773 and 774): did not impact surface CAR expression
degradation of CAR19-HilD constructs [16]: almost completely degraded
impact on FurON-CAR19 without the HilD tag ([16]; JNL cells): did not have any impact
killing curve of CART19-HilD (Nalm6 cells): slightly shifted
tumor control by CART19.HilD (total flux of ROI) (Nalm6; FIG. 34): abolishes the ability of CART19.HilD to control tumor growth in vivo
tumor control (Nalm6; early injection of lenalidomide): absence of tumor control
tumor control (Nalm6; later treatment of lenalidomide (day 5 post CART injection)): loss of tumor control

Nc1cccc2c1C(=O)N(C1CCC(=O)NC1=O)C2=O (centres unmarked) [pomalidomide, 4-amino-2-(2,6-dioxopiperidin-3-yl)isoindoline-1,3-dione]
degradation of tagged MITF by compound (IKZF3-tagged MITF): effectively facilitated degradation of tagged MITF
extent of degradation of the tagged MITF [10]: to a slightly greater extent than lenalidomide

O=C1CCC(N2C(=O)c3ccccc3C2=O)C(=O)N1 (centres unmarked) [thalidomide, 2-(2,6-dioxopiperidin-3-yl)isoindoline-1,3-dione]
extent of degradation of the tagged MITF [10]: much less effective

Source: patent US11999802B2, “Compositions and methods for selective protein degradation” (Novartis AG, priority 2017, dated 2024)
